ChEMBL document CHEMBL1201862, “PubChem BioAssay data set” (2004)
The source made the active and inactive calls.

How the values were obtained:
Protein skinhead-1 = target: T1, Protein skinhead-1 (Caenorhabditis elegans, UniProt P34707); assay type: functional
T1 sequence (P34707 whole entry): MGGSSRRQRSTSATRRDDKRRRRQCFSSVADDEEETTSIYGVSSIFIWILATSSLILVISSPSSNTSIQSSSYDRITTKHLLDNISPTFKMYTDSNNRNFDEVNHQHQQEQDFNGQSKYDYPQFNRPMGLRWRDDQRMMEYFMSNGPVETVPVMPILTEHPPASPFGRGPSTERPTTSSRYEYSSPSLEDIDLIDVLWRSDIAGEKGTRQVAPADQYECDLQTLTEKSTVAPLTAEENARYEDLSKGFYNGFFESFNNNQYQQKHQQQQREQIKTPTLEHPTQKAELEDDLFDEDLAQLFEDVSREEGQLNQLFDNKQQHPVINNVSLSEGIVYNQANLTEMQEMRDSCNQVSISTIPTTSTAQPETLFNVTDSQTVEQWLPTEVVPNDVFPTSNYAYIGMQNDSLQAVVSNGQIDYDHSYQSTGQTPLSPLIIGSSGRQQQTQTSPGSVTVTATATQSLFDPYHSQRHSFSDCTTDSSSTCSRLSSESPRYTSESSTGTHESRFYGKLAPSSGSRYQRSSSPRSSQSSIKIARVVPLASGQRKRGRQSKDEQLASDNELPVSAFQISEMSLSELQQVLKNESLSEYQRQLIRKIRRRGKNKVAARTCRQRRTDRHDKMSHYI

Cytochrome P450 2D6 = Cytochrome P450 2D6 (Homo sapiens, UniProt P10635);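 also: CYP2D6 member of a cytochrome P450 panel assay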
Cytochrome P450 2D6, sequence (P10635 whole entry): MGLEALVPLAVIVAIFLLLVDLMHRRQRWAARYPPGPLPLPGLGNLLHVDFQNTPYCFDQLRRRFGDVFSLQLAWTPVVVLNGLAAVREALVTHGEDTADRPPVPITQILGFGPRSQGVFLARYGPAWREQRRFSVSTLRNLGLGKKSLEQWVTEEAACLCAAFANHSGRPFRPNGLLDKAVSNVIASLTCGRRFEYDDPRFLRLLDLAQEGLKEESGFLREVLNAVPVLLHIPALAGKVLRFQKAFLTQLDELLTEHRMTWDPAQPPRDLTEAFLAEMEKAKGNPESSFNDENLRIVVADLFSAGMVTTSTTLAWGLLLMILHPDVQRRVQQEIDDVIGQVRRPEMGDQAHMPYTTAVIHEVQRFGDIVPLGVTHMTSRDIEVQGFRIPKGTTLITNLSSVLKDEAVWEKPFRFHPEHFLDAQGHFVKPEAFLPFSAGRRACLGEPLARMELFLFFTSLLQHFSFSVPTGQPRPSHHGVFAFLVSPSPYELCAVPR

Cytochrome P450 2C9 [1] = target: T2, Cytochrome P450 2C9 (Homo sapiens, UniProt P11712)
T2 sequence (P11712 whole entry): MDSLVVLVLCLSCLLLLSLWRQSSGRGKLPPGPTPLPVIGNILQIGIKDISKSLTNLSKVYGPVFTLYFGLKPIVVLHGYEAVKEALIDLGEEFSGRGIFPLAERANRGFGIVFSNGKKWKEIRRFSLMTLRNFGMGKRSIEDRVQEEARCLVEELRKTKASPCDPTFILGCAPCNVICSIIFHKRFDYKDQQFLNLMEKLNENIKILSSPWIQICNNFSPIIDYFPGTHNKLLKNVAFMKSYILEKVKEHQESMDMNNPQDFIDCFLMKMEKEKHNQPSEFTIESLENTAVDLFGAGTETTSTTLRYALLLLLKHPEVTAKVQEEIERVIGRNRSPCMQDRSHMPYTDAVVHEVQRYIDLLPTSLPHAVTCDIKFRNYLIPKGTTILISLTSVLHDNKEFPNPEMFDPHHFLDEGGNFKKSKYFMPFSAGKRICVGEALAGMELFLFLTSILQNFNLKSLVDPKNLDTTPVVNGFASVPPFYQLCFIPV

[2] = Luminescence Cell-Based Dose Confirmation HTS to Identify Activators of 5'UTR Stem-Loop Driven Alpha-Synuclein mRNA Translation in H4 Neuroglioblastoma Cells. [Related pubchem assays: 1829 (Project Summary), 1814 (Primary HTS)]; assay type: functional
[3] = Luminescence Cell-Based Dose Response HTS to Identify Activators of Luciferase Translation or Activity in H4 […] Cells. [Related pubchem assays: 1829 (Project Summary), 1814 (Primary HTS)]; assay type: functional
Protein RecA = target: T3, Protein RecA (Mycobacterium tuberculosis, UniProt P9WHJ3); experiment: Fluorescence Cell-Free Homogeneous Dose Retest to Identify Inhibitors of RecA-Intein Splicing Activity. [Related pubchem assays (depositor defined):AID2097, AID2223, AID489010, AID492950]; assay type: functional
T3 sequence (P9WHJ3 whole entry): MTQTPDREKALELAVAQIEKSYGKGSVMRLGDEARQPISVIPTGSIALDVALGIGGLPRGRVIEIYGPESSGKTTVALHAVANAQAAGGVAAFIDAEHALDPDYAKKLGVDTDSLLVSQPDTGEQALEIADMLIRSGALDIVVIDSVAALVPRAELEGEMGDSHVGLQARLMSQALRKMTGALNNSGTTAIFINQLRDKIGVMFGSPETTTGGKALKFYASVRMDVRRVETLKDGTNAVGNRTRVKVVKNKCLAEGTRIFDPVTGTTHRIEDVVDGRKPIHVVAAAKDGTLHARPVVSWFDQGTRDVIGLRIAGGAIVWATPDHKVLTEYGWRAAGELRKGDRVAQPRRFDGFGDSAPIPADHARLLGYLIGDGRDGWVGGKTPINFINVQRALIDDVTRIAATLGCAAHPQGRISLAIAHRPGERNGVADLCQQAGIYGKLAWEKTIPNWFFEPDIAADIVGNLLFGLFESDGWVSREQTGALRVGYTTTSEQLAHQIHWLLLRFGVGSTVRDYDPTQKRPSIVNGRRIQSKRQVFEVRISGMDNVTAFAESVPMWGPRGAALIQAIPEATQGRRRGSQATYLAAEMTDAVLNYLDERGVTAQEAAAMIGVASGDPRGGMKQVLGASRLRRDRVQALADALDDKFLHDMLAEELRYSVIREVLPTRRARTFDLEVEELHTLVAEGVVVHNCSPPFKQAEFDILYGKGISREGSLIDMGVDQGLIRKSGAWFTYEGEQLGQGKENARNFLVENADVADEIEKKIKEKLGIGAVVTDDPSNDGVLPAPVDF

H4 = experiment: Luminescence Cell-Based Dose Response HTS to Identify Activators of 5'UTR Stem-Loop Driven Prion Protein mRNA Translation in H4 Neuroglioblastoma Cells. [Related pubchem assays: 1829 (Project Summary), 1814 (Primary HTS)]; assay type: functional; details: Homo sapiens
[4] = viability of HCT116 lacking mutant beta-catenin – cell-based, human colon tumor, dose response (AID 1045); assay type: functional;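 also: HCT116 colon tumor cells with beta catenin knocked out; cells exposed to compound for 60 hours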
[5] = viability of PTEN-deleted HCT116 cells – cell-based, HCT116 PTEN knockout, dose response (AID 1047); assay type: functional;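 also: HCT116 colon tumor cells with PTEN knocked out; cells exposed to compound for 60 hours before readout; potency for loss of cell viability measured by luminescence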
Cytochrome P450 3A4 = Cytochrome P450 3A4 (Homo sapiens, UniProt P08684);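 also: CYP3A4 tested as one member of a cytochrome P450 panel screen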
Cytochrome P450 3A4, sequence (P08684 whole entry): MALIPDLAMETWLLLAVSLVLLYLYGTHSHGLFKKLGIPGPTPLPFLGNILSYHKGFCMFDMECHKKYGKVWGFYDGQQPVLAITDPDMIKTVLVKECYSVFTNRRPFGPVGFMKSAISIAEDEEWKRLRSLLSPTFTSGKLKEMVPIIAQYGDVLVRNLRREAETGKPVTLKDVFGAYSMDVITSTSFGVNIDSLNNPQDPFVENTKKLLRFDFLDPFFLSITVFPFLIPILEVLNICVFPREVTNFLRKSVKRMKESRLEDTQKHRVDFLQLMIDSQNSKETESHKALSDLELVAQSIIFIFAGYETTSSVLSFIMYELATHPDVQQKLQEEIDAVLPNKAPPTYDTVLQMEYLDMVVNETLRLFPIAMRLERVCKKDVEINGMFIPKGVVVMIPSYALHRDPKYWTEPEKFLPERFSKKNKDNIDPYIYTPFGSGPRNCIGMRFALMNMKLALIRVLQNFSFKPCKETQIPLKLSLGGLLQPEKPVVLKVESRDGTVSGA

Cytochrome P450 1A2 = target: T4, Cytochrome P450 1A2 (Homo sapiens, UniProt P05177);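 also: PubChem cytochrome P450 panel assay, CYP1A2 panel member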
T4 sequence (P05177 whole entry): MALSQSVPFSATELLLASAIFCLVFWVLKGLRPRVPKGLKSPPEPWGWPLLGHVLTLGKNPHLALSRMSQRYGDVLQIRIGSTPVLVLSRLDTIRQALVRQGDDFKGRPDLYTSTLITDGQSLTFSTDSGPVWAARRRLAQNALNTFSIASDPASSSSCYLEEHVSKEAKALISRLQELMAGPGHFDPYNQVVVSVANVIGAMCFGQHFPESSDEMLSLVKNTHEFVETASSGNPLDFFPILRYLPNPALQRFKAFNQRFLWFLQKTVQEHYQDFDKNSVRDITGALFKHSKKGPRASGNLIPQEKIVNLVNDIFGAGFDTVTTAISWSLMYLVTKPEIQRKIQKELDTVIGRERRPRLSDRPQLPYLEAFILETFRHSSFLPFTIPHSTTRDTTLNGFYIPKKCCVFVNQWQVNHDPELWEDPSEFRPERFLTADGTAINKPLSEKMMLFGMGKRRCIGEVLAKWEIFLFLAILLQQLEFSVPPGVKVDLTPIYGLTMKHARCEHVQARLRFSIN

Cytochrome P450 2C9 [6] = target: T2, Cytochrome P450 2C9; remark: listed apart in the source
Cytochrome P450 2C19 = Cytochrome P450 2C19 (Homo sapiens, UniProt P33261); experiment: Cytochrome panel assay with activity outcomes. Panel member name: p450-cyp2c19 Compounds with AC50 equal or less than 10 uM are considered active; assay type: functional; details: read-out: AC50
Cytochrome P450 2C19, sequence (P33261 whole entry): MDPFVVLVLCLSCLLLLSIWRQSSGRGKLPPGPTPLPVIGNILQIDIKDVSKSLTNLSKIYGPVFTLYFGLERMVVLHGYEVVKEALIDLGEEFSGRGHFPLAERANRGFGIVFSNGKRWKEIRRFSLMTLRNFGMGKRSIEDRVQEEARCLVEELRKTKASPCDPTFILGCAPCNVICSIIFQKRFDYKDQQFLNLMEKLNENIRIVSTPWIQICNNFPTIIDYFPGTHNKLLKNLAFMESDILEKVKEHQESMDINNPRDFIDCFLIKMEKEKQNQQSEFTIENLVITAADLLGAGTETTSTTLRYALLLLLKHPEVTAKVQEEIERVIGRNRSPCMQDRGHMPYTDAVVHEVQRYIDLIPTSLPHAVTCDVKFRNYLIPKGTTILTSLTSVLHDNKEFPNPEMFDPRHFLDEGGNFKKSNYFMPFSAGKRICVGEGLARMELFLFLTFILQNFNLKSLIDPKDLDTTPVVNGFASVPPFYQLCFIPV

Streptococcus = experiment: GAS UMAA2166 growth inhibition – luminescence, BacTiterGlo, counter-screen for streptokinase expression inhibitor project, dose response (AID 1915); assay type: functional, organism-based;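 also: potency for reduction of bacterial viability or growth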
[7] = tested on: Streptococcus sp. 'group A'; experiment: Streptococcus pyogenes SK(-)GAS viability under kanamycin – luminescence, BacTiterGlo, confirmation, counter-screen for streptokinase expression inhibitor project, dose response (AID 1900); assay type: functional, organism-based
[8] = target: T5, Corticotropin-releasing factor receptor 2/Corticotropin-releasing factor-binding protein (Homo sapiens, UniProt P24387+Q13324); experiment: activators of CRF receptor 2 with binding protein – uHTS hits, confirmation (AID 602473); assay type: functional; details: read-out: EC50_Mean
T5 sequence (Q13324 whole entry): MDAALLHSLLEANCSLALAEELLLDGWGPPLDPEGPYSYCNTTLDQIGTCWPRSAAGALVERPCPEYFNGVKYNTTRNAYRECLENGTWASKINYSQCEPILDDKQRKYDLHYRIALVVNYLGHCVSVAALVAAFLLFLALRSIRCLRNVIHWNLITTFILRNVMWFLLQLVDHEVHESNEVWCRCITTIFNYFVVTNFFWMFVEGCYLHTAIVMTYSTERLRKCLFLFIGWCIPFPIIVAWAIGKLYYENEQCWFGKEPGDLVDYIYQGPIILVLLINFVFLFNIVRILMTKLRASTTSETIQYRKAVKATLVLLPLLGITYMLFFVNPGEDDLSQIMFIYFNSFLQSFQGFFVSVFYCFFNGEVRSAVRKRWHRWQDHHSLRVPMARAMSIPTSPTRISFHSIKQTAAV
T5 sequence (P24387 whole entry): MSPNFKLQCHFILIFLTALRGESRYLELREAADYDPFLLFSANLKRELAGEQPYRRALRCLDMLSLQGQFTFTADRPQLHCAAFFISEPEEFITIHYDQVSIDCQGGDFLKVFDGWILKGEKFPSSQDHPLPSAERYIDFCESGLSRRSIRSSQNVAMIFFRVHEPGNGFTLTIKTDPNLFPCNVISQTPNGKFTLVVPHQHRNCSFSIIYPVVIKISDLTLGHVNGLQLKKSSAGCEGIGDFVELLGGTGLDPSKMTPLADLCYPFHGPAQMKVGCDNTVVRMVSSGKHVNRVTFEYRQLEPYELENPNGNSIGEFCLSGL

[9] = target: T5, Corticotropin-releasing factor receptor 2/Corticotropin-releasing factor-binding protein; experiment: Dose Response confirmation of uHTS hits for small molecule antagonists of the CRF-binding protein and CRF-R2 receptor complex.; assay type: functional; details: read-out: IC50_Mean

With `CS(=O)(=O)N1N=C(c2cccs2)CC1c1ccccc1O` (centres undefined) the IC50 (Protein skinhead-1) was > 100 µM (inactive).
With `CCOC(=O)CSC1=C(C#N)C(c2sccc2C)C(C(C)=O)=C(C)N1` (centres undefined) the AC50 (Cytochrome P450 2D6) was 35.5 µM (inconclusive).
With `COc1ccc(S(=O)(=O)Nc2ccc(S(=O)(=O)Nc3ccc(F)cc3)cc2)cc1C` the IC50 (Protein skinhead-1) was > 100 µM (inactive).
In the case of `O=c1c(-c2cccs2)nc2cncnc2n1Cc1ccc(F)cc1`, the AC50 (Cytochrome P450 2C9 [1]) is reported as 1 µM (inconclusive) and the AC50 (Cytochrome P450 2D6) is reported as 0.631 µM (inconclusive).
For `CCOC(=O)c1cc2cc3ccccc3cc2[nH]1`, the EC50 [2] was 0.164 µM (active), the EC50 [3] was 0.191 µM (active) and the IC50 (Protein skinhead-1) was > 100 µM (inactive). For the same compound, the EC50 (Protein RecA) was > 380 µM (inactive) and the EC50 (H4) was > 120 µM (not active).
With `COc1cccc(/C=N/NC(=O)CNC(=O)C2COc3ccccc3O2)c1O` (centres undefined) the EC50 [4] was 10.9 µM (active) and the EC50 [5] was 13.1 µM (active).
In the case of `C=CCNc1nc(-c2ccc([N+](=O)[O-])cc2)cs1`, the IC50 (Protein skinhead-1) is reported as 23.7 µM (active).
For `COc1cc2c(cc1OC)-c1cc3ccc(OC)c(OC)c3c[n+]1CC2` [PALMITINE], the AC50 (Cytochrome P450 2D6) was 12.6 µM (inconclusive).
For `C[N+](C)(C)C1=NNC2=Nc3ccccc3SC2=C1`, the AC50 (Cytochrome P450 2D6) was 3.98 µM (inconclusive).
For `COC(=O)[C@@]1(Cc2ccc(F)cc2)[C@H]2c3cc(C(=O)N(C)C)n(Cc4ccc(C)c(F)c4F)c3C[C@H]2CN1C(=O)c1ccccc1`, the AC50 (Cytochrome P450 2D6) was 20 µM (inconclusive).
For `O=C(Cn1cc(C(=O)c2ccco2)c2ccccc21)NCc1ccco1`, the AC50 (Cytochrome P450 2D6) was 22.4 µM (inconclusive).
With `CN(C)C(=O)c1ccc(-c2nc(Nc3ccc(F)cc3)c3ccccc3n2)cc1` the AC50 (Cytochrome P450 3A4) was 20 µM (inconclusive) and the AC50 (Cytochrome P450 2D6) was 25.1 µM (inconclusive).
In the case of `O=C(N/N=C/c1c[nH]c2ccccc12)c1cc(-c2ccc(-c3ccccc3)cc2)[nH]n1`, the EC50 [2] is reported as 0.219 µM (active), the EC50 [3] is reported as 0.166 µM (active) and the AC50 (Cytochrome P450 1A2) is reported as 3.16 µM (inconclusive). The EC50 [4] was 8.8 µM (active), the AC50 (Cytochrome P450 2C9 [6]) was “inconclusive” and the EC50 [5] was 5.81 µM (active). For the same compound, the AC50 (Cytochrome P450 2C19) was 6.31 µM (inconclusive), the EC50 (Streptococcus) was 1.56 µM (active) and the EC50 [7] was 3.46 µM (active). The EC50 (H4) was > 120 µM (not active).
In the case of `CC(=O)O[C@H]1[C@@H](O)[C@H](O)[C@H](Oc2c(O)c(C)c3c4c2[C@@H](C)CC[C@@H]4[C@@H](C)C[C@@H]3C=C(C)C)O[C@H]1C`, the IC50 (Protein skinhead-1) is reported as > 100 µM (inactive).
For `COc1cc2cc(/C=C/C(=O)c3ccco3)c(Cl)nc2cc1OC`, the EC50 [4] was 10.1 µM (active) and the EC50 [5] was 11.6 µM (active).
For `O=C(Nc1ccc2oc(-c3cccnc3)nc2c1)c1ccc(Br)o1`, the IC50 (Protein skinhead-1) was > 100 µM (inactive).
For `COCCNc1ncnc2ccc(-c3ccccc3OC)cc12`, the AC50 (Cytochrome P450 2D6) was 39.8 µM (inconclusive).
For `C#CCNC(=O)C1=C[C@@H](c2cn(C(C)=O)c3ccccc23)C[C@@H](OCCCCO)O1`, the IC50 (Protein skinhead-1) was > 100 µM (inactive).
With `O=c1cc(-c2ccc(F)cc2)oc2ccccc12` the IC50 (Protein skinhead-1) was 16.2 µM (active), the EC50 [8] was > 53 µM (inactive) and the IC50 [9] was > 47.1 µM (inactive).
In the case of `O=C(c1ccc([N+](=O)[O-])cc1)[C@@H](Br)[C@@H](Br)c1ccnc2ccccc12`, the AC50 (Cytochrome P450 2D6) is reported as 3.98 µM (inconclusive).
In the case of `CCCCN1C(=O)C(O)(CC(=O)c2ccco2)c2cc(Br)ccc21` (centres undefined), the EC50 [4] is reported as 5.01 µM (active) and the EC50 [5] is reported as 7.11 µM (active).
For `CCOC(=O)/C=c1\s/c(=C\c2ccc(C(F)(F)F)cc2)c(=O)n1CC(=O)NCc1ccco1`, the EC50 [4] was 45.9 µM (active) and the EC50 [5] was 35.9 µM (active).
For `CCOC(=O)/C(=C/c1ccc(N2CCC(c3ccccc3)=N2)cc1)C(C)=O`, the EC50 [4] was 26.7 µM (active) and the EC50 [5] was 0.014 µM (active).
In the case of `CCn1c(COc2ccc(OC)cc2)nc2ccccc21`, the AC50 (Cytochrome P450 2C9 [6]) is reported as “inconclusive” and the AC50 (Cytochrome P450 2D6) is reported as 17.8 µM (inconclusive).
With `CC1=NN(c2ccccc2)C(=O)/C1=C\C=C1\N(C)c2ccccc2C1(C)C` the IC50 (Protein skinhead-1) was 42.5 µM (active).
With `O=C(c1ccc(S(=O)(=O)NCc2ccco2)cc1)N1CCN(c2ccc(F)cc2)CC1` the IC50 (Protein skinhead-1) was > 100 µM (inactive).
